The results in this text go back to article PMC11302339, “A series of pyrimidine-based antifungals with anti-mold activity disrupt ER function in Aspergillus fumigatus” (Microbiology Spectrum, 2024).

Values after ≈ are worked out from the molar mass of the structure shown.

Assay [1] has as its system A. fumigatus UPR-responsive genes. Description: A. fumigatus UPR gene expression (qRT-PCR). It is filed as cell-based, Aspergillus fumigatus. The conditions noted are these: single agent (16 µg/mL 1, or 1 mM DTT for 1 hour); normalized to DMSO. The method, then: We cultured 5 × 10^6 CEA10 conidia/mL in liquid GMM for 18 hours at 37°C with shaking at 250 rpm. Cultures were treated with either DMSO or 16 µg/mL 1 for 2 hours at 37°C, 250 rpm. Then 1 mM DTT or water was added, and cultures were incubated for an additional hour. Mycelia were collected with vacuum filtration and immediately frozen with liquid nitrogen. Tissue was lyophilized then ground with glass beads with a bead beater. RNA was extracted in 1 mL of TRIazole solution (Life Technologies, Cat # 15596026), then RNA was purified with two rounds of chloroform extraction. Five micrograms of RNA was treated with TURBO DNA-free kit (Invitrogen, Cat # AM1907) according to the manufacturer’s protocol. Five hundred nanograms of DNAse-treated RNA was used for cDNA synthesis with iScript cDNA synthesis kit (BioRad, Cat # 1708891), then cDNA was diluted 1:5 with ddH2O. Quantitative real time PCR analysis was performed in 20 µL reactions using 2 µL of dilute cDNA per reaction with iQ SYBR Green Supermix (BioRad). Samples were run on a BioRad CFX Connect using a three-step amplification with 54°C annealing temperature and melt curve analysis. Gene expression is normalized to tubA and tef1 expression. Gene expression was performed in biological triplicate. Primers to detect HacA splicing and targets were designed as previously described ([51]).

Assay [2] deals with A. fumigatus collagenase secretion. As to the kind of experiment: Detection of secreted collagenase by azocoll. It is filed as cell-based, Aspergillus fumigatus. The conditions noted are these: treated with 1/2 MIC of each compound. The method, then: 1 × 10^6 CEA10 conidia/mL were cultured in 25 mL liquid GMM for 18 hours, then mycelia were washed with sterile ddH2O and transferred to 10% FBS-MM and treated with DMSO or the indicated concentration of drugs. Cultures were incubated at 37°C, 250 rpm, for an additional 24 hours, then the supernatant and biomass were collected. One milliliter of supernatant was spun at top speed for 5 min. Azocoll of <50 mesh (Sigma, Cat # 194932) was washed in buffer (50 mM Tris, pH 7.5, 1 mM NaCl, and 0.01% sodium azide) then resuspended to 5 mg/mL. Fifteen microliters of culture supernatant was added to the 2 mL azocoll solution and incubated at 37°C with shaking at 300 rpm for 3 hours in the dark. Reactions were spun at maximum speed for 3 min; 200 µL of supernatant was then transferred to a 96-well plate; and Abs 520 was measured. Biomass was lyophilized, and absorbance readings were normalized to milligram tissue. Data represent the mean and SEM of biological triplicates with technical duplicates except for compounds 5 and 7, which are biological duplicates due to the limited availability of the drug and the required culture size for this assay.

For a further assay, the system named is A. fumigatus. As to the kind of experiment: MIC testing (CLSI broth dilution). The format is cell-based. As to conditions: Aspergillus fumigatus, 48 h, strain CEA10; CLSI conditions, 48 h; read-out: MIC. The method, then:
(§1) MICs were determined using Clinical and Laboratory Standards Institute guidelines ([48], [49]). All yeasts were cultured overnight in 3 mL YPD at 30°C, then washed twice in sterile phosphate-buffered saline (PBS). Twofold serial dilutions of each drug were prepared in RMPI + MOPS, then 1 × 10^3 cells were added per well. For mold species, wells were inoculated with 1.25 × 10^3 conidia per well. Plates were incubated at 37°C for 24 (Candida spp. and S. cerevisiae), 48 (Aspergillus spp., M. circinelloides, S. apiospermum, and L. prolificans), or 72 (C. neoformans and F. oxysporum) hours. S. cerevisiae BY4743 MICs were tested in YPD due to nutritional requirements of this strain. Each assay was performed in technical duplicate in at least two independent experiments performed on different days.
In general terms: Dilution methods test growth across graded concentrations, often in twofold steps.

The subject of the next assay is C. neoformans. As to the kind of experiment: MIC testing (CLSI broth dilution). It is filed as cell-based. The conditions noted are these: Cryptococcus neoformans, 72 h, strain H99; CLSI conditions. The protocol:
as §1

A further assay deals with A. fumigatus biofilms. Description: A. fumigatus hyphal (biofilm) activity, resazurin. It is filed as cell-based, Aspergillus fumigatus. The conditions noted are these: conidia germinated 14 hours, escalating doses 24 hours. The protocol:
To determine antifungal activity against A. fumigatus hyphae, a 96-well plate was inoculated with 1 × 10^3 conidia per well in 100 µL RPMI + MOPS with the edge wells filled with 200 µL sterile water to minimize edge effects. Plates were incubated at 37°C for 14 hours. A twofold dilution series of 1 or 7 was prepared in RPMI + MOPS at 2× concentration with 0.002% resazurin, then 100 µL of the drug was added to wells, and plates were incubated for an additional 24 hours. Fluorescence was measured with an excitation wavelength of 570 nm and an emission wavelength of 615 nm. Data are representative of two independent experiments performed in biological triplicate.
A general note: Alamar Blue is a resazurin reagent that responds to reducing activity.

In the case of `O[C@@H](CS)[C@@H](O)CS` (racemic) [DTT, 1,4-dithiothreitol, reference compound], in assay [1], the “increase in BipA expression” value amounted to 5 fold, the “increase in PdiA expression” value is recorded as 2 fold and the “increase of spliced HacA (HacA^A)” value is reported as ~ 1.5 fold.

What is called MIC is the smallest concentration in the dilution series that meets the test's criterion for growth inhibition. Take `OC1CC(c2cc(N3CCC(Cc4ccc(F)cc4)CC3)ncn2)C1` (centres unmarked) [compound 3]: in assay [2], the collagenase secretion entry is “inhibition of collagenase secretion was similar”. In addition, the MIC was determined as 64 µg/mL (≈ 187 µM) with A. fumigatus and 4 µg/mL (≈ 11.7 µM) in the assay on C. neoformans.

For the compound `OC1CC(c2cc(N3CCC(CCN4CCCC4)CC3)ncn2)C1` (centres unmarked) [compound 4], the MIC is above 128 µg/mL in the assay on A. fumigatus and 128 µg/mL (≈ 387 µM) against C. neoformans.

Consider `COC1CCN(c2cc(C3CC(O)C3)ncn2)CC1` (centres unmarked) [compound 6], for which the MIC with A. fumigatus and in the assay with C. neoformans was above 128 µg/mL throughout.

`OC1CC(c2cc(NCC3CCN(CCc4ccccc4)CC3)ncn2)C1` (centres unmarked) [compound 7]: in the assay with A. fumigatus biofilms, the “inhibition of hyphal growth” value is “did not show inhibitory activity”. The collagenase secretion entry in assay [2] is on record as “modest but insignificant effect”. Also, the MIC in the assay on A. fumigatus and in the assay on C. neoformans was above 128 µg/mL throughout.
